Results from patent publication US20240262847A1, “COVALENT RAS INHIBITORS AND USES THEREOF” (Revolution Medicines, Inc., priority 2021, published 2024).

biological target: T1, GDP-loaded K-Ras (1-169) G12D, C51S, C80L, C118S (Homo sapiens, UniProt P01116, C118S/C51S/C80L/G12D); assay: K-Ras G12D(GDP) cross-linking assay (mass spectrometry, percent covalent modification); assay type: binding; conditions: at 24 hours, room temperature
T1 construct: GDP-loaded K-Ras (1-169) G12D, C51S, C80L, C118S
Procedure: Protocol: K-Ras G12D(GDP) Cross-Linking Assay
Note: While the Following Protocol Outlines the Procedure for K-Ras G12D(GDP), a Person of Skill in the Art May Substitute Other Ras Proteins, and May Also Substitute a Non-Hydrolyzable GTP Analog for GDP to Study GTP Bound Ras Protein.
GDP-loaded K-Ras (1-169) G12D, C51S, C80L, C118S and GDP-loaded K-Ras (1-169) C51S, C80L, C118S were adjusted to 50 μM in K-Ras assay buffer (12.5 mM HEPES, 75 mM NaCl and 1 mM MgCl2 at pH 7.4). A 5 μL aliquot of each protein solution was added to each well of a 96-well microplate containing 40 μL of assay buffer. Initial compound stocks were prepared in DMSO at 100 times their final assay concentration. Compounds were then diluted 10-fold into K-Ras assay buffer to 10 times their final concentration. A 5 μL aliquot of each diluted compound solution was added to each protein solution in the 96-well microplate to initiate the reaction, which then proceeded at room temperature. Typical final compound concentrations were 2, 10, and 25 μM. At each time point, the reactions were analyzed immediately or quenched with 5 μL of a 5% formic acid solution and kept at 4° C. until analysis. Typical assay endpoints were 1, 6 and 24 h.
Data collection took place on an Agilent 6230 TOF Mass Spectrometer. Complete reactions were injected onto a C4 reverse-phase column to separate protein from buffer components prior to entering the mass spectrometer. The proteins were eluted from the column by increasing acetonitrile fraction in the mobile phase and fed directly into the mass analyzer. Initial analysis of raw data took place on Agilent MassHunter BioConfirm software and consisted of deconvolution of multiple protein charge states with the maximum entropy algorithm, with a mass step of 1 Da. The heights of all deconvoluted protein masses were exported for further data analysis. The percent modification of each protein was then determined by calculating the peak height of the covalently modified K-Ras species as a percentage of the sum total of K-Ras protein peak height.

SMILES | cross-linking to K-Ras G12D
Oc1cc(-c2ncc3c(N4C[C@H]5CC[C@@H](C4)N5C[C@H]4CN4)nc(OC[C@@]45CCCN4C[C@H](F)C5)nc3c2F)c2c(F)cccc2c1 [Compound B3, 4-(4-((1R,5S)-8-(((R)-aziridin-2-yl)methyl)-3,8-diazabicyclo[3.2.1]octan-3-yl)-8-fluoro-2-(((2R,7aS)-2-fluorotetrahydro-1H-pyrrolizin-7a(5H)-yl)methoxy)pyrido[4,3-d]pyrimidin-7-yl)-5-fluoronaphthalen-2-ol] | greater than 0%

same assay, conditions: at times up to 24 hours, room temperature

SMILES | cross-linking to K-Ras G12D
O=C([C@H]1CN1)N1[C@@H]2CC[C@H]1CN(c1nc(OC[C@@]34CCCN3C[C@H](F)C4)nc3c(F)c(-c4cc(O)cc5cccc(F)c45)ncc13)C2 [Compound B1, ((R)-aziridin-2-yl)((1R,5S)-3-(8-fluoro-7-(8-fluoro-3-hydroxynaphthalen-1-yl)-2-(((2R,7aS)-2-fluorotetrahydro-1H-pyrrolizin-7a(5H)-yl)methoxy)pyrido[4,3-d]pyrimidin-4-yl)-3,8-diazabicyclo[3.2.1]octan-8-yl)methanone] | no cross-linking
O=C([C@@H]1CN1)N1[C@@H]2CC[C@H]1CN(c1nc(OC[C@@]34CCCN3C[C@H](F)C4)nc3c(F)c(-c4cc(O)cc5cccc(F)c45)ncc13)C2 [Compound B2, ((S)-aziridin-2-yl)((1R,5S)-3-(8-fluoro-7-(8-fluoro-3-hydroxynaphthalen-1-yl)-2-(((2R,7aS)-2-fluorotetrahydro-1H-pyrrolizin-7a(5H)-yl)methoxy)pyrido[4,3-d]pyrimidin-4-yl)-3,8-diazabicyclo[3.2.1]octan-8-yl)methanone] | no cross-linking
Oc1cc(-c2ncc3c(N4C[C@H]5CC[C@@H](C4)N5C[C@@H]4CN4)nc(OC[C@@]45CCCN4C[C@H](F)C5)nc3c2F)c2c(F)cccc2c1 [Compound B4, 4-(4-((1R,5S)-8-(((S)-aziridin-2-yl)methyl)-3,8-diazabicyclo[3.2.1]octan-3-yl)-8-fluoro-2-(((2R,7aS)-2-fluorotetrahydro-1H-pyrrolizin-7a(5H)-yl)methoxy)pyrido[4,3-d]pyrimidin-7-yl)-5-fluoronaphthalen-2-ol] | no cross-linking
O=C([C@H]1CN1)N1C=C(c2ncc3c(N4C[C@H]5CC[C@@H](C4)N5)nc(OC[C@@]45CCCN4C[C@H](F)C5)nc3c2F)c2c(F)cccc2C1 [Compound B23, (4-(4-((1R,5S)-3,8-diazabicyclo[3.2.1]octan-3-yl)-8-fluoro-2-(((2R,7aS)-2-fluorotetrahydro-1H-pyrrolizin-7a(5H)-yl)methoxy)pyrido[4,3-d]pyrimidin-7-yl)-5-fluoroisoquinolin-2(1H)-yl)((R)-aziridin-2-yl)methanone] | no cross-linking
O=C([C@@H]1CN1)N1C=C(c2ncc3c(N4C[C@H]5CC[C@@H](C4)N5)nc(OC[C@@]45CCCN4C[C@H](F)C5)nc3c2F)c2c(F)cccc2C1 [Compound B24, (4-(4-((1R,5S)-3,8-diazabicyclo[3.2.1]octan-3-yl)-8-fluoro-2-(((2R,7aS)-2-fluorotetrahydro-1H-pyrrolizin-7a(5H)-yl)methoxy)pyrido[4,3-d]pyrimidin-7-yl)-5-fluoroisoquinolin-2(1H)-yl)((S)-aziridin-2-yl)methanone] | no cross-linking
